In US12415807B2, “PKC inhibitor solid state forms” (MingSight Pharmaceuticals, Inc., priority 2017, dated 2025):

How the values were obtained:
[1] = tested on: Interleukin-8 release; assay: Interleukin-8 release; type: cell-based
Excerpt: (§1) The methods for these determinations have been described (Grant, et al. 2010, Eur. J. Pharmacol. 627:16-25).

[2] = target: Human PKC delta (Homo sapiens, UniProt Q05655); assay: In vitro PKC inhibition, PKC delta; type: biochemical
Excerpt: as §1

[3] = tested on: pSHP2 (PKCβ cell assay); assay: pSHP2 (PKCβ cell assay); type: cell-based
Excerpt: as §1

Human PKC delta, sequence (Q05655 whole entry): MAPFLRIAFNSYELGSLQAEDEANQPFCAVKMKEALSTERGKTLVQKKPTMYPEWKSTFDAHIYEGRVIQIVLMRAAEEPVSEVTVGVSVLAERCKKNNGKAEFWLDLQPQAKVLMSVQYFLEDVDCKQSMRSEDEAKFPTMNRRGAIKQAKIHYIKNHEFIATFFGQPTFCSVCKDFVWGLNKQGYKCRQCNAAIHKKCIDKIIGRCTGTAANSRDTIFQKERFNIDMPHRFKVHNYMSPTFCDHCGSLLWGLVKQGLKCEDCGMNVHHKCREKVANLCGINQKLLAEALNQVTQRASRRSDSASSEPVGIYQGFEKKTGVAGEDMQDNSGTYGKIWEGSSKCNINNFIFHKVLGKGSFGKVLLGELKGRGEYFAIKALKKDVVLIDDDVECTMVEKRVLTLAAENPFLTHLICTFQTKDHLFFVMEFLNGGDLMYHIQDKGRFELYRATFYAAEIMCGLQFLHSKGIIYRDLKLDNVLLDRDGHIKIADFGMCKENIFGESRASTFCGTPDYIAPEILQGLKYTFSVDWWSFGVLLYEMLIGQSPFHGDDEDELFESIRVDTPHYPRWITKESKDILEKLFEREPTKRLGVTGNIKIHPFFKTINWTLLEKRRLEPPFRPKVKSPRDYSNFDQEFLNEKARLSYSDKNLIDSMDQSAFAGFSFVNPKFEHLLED

For Cc1ncc(F)c(Nc2n[nH]c3c2CN(C(=O)N2C[C@@H](C)N(CC4CCOCC4)C[C@@H]2C)C3(C)C)n1 [Compound 1, 5-{[(2S,5R)-2,5-dimethyl-4-(tetrahydro-2H-pyran-4-ylmethyl)piperazin-1-yl]carbonyl}-N-(5-fluoro-2-methylpyrimidin-4-yl)-6,6-dimethyl-1,4,5,6-tetrahydropyrrolo[3,4-c]pyrazol-3-amine], the IC50 [1] was 39 nM, the “Inhibition of PKC delta (in words)” value [2] was “does not significantly inhibit” and the IC50 [3] was 9.8 nM.
